Reference: patent US7842682B2, “Boronated metal-phthalocyanines, process for their preparation, pharmaceutical compositions comprising them and use thereof” (L. Molteni & C. Dei Fratelli Alitti, priority 2003, dated 2010)
Entries after “also recorded” stand apart in the source; their conditions may differ. Values belong to the substance of their own block, whether it stands above or below them.

Assays:
[1] = system: B16F1 transplanted pigmented melanoma; assay: BNCT: rate of tumour growth after thermal neutron irradiation in melanoma bearing mice; assay type: in vivo, C57/BL6 mice
Procedure: FIG. 7: Rate of tumour growth as a function of post-irradiation time in C57/BL6 mice bearing a B16F1 transplanted pigmented melanoma which have been intravenously injected with 6.0 mg/kg boronated phthalocyanine prepared according to Example 23, as a DOPC liposomal preparation, and at 24 hours from injection were irradiated by thermal neutrons for 20 and 30 min. The growth profile of the radiosensitized pigmented melanoma is compared with that obtained for untreated control mice.

[2] = Photostability (photobleaching) under visible light irradiation, spectrophotometric; assay type: physicochemical; settings: irradiated as for FIG. 1; compared with not-boronated (unsubstituted zinc) phthalocyanine
Source text: FIG. 2A: Absorption spectrum and determination of the degraded unsubstituted zinc phthalocyanine, irradiated according to the experimental conditions described above for FIG. 1.
It is known that most phthalocyanines are subjected to a more or less extensive photobleaching under visible light irradiation. It is therefore important to define if the rate constant of this process is too fast, so that the active principle is photodegraded at a high rate, which could negatively interfere with the photosensitization of cells or other substrates. […] Results obtained with a not substituted phthalocyanine are reported. In FIG. 2A as a reference. From comparison of the plots shown in FIGS. 2A and 2B it may be concluded that • 1- the boron substituted molecules prepared according to the present invention are as useful photosensitizers able to absorb red visible light as the unsubstituted ones; • 2- the photobleaching kinetics undergoes only limited changes when the phthalocyanine structure is modified by introduction of boronated groups. […] Assessment of Activity on Biological Substrates

[3] = system: melanocytes deriving from murine pigmented melanoma B16-F1; assay: Photosensitization of B16-F1 melanocytes, survival by Trypan Blue exclusion test; assay type: cell-based; settings: 24 hrs incubation, DPPC or DOPC liposomal preparation 7 microM; red light 600-750 nm, 50 mW/cm^2; irradiation times as low as 10 min
Procedure: Irradiations were performed as described above for FIG. 1.
Melanocytes were incubated (24 hrs) with a DPCC or DOPC liposomal phthalocyanine preparation (7 microM). After incubation, the cells were washed with PBS and irradiated with red visible light (600-750 nm, 50 mW/cm^2). Survival was determined after the photo-treatment (18-24 hrs) by the Trypan Blue exclusion test. Results for delivered phthalocyanine are summarised in FIG. 3A (DPPC liposomes) and in FIG. 3B (DOPC liposomes).

[4] = Pharmacokinetics and tissue distribution in B16-F1 pigmented melanoma bearing mice; assay type: in vivo, C57/BL6 mice
Procedure: Toward this aim, once tumours had reached the volumes of […], the boronated phthalocyanine as DPPC liposomal preparation (0.75 mg/kg) or as a DOPC liposomal preparation (3 mg/kg) was systemically administered. […]

[5] = system: B16F1 transplanted pigmented melanoma; assay: PDT: rate of tumour growth after red light irradiation in melanoma bearing mice; assay type: in vivo, C57/BL6 mice
Procedure: The tumour response is most evident if the irradiations are carried out at 3 h after injection of the photosensitizer.

amount of phthalocyanine accumulated in the tumour ([1]; 24 h after i.v. injection in DOPC liposomes): sufficient to achieve the BNCT effect
Substance: 1,8(11),15(18),22(25)-tetrakis-{[4-(^10B-o-carboran-1-yl)methyl]phenoxy}phthalocyaninate zinc(II) [Example 23]
tumour necrosis after BNCT ([1]; 6.0 mg/kg i.v. in DOPC liposomes, thermal neutrons at 24 h): extensive tumour necrosis | tumour growth after BNCT ([1]; 6.0 mg/kg i.v. in DOPC liposomes, thermal neutrons at 24 h for 20 and 30 min, versus untreated control mice): significant delay in tumour growth

Substance: 1,8(11),15(18),22(25)-tetrakis-{[4-(^11B-o-carboran-1-yl)methyl]phenoxy}-phthalocyaninate zinc(II) [Example 21]
photobleaching [2]: more extensive photobleaching | cell survival after photo-treatment [3]: almost complete cell mortality | clearance from plasma ([4]; DPPC liposomes 0.75 mg/kg or DOPC liposomes 3 mg/kg, systemically administered): rapid with no product residue at 24 hrs after the treatment | clearance from liver and spleen ([4]; delivered via DOPC liposomes, after 1 week from injection): largely cleared | recovery from liver and spleen ([4]; delivered via liposomes): large recovery; also recorded: accumulated in large amounts | amount found in the skin (peritumoural tissue) ([4]; mouse, in vivo): small amounts | recovery from the kidneys ([4]; mouse, in vivo): Very limited amounts | rate of tumour growth after PDT ([5]; 6.0 mg/kg i.v., DOPC liposomal preparation, 670 nm, 200 mW/cm^2, 250 J/cm^2): significant delay in the rate of tumour growth | tumour response by interval between injection and irradiation ([5]; irradiations carried out at 3 h after injection of the photosensitizer): most evident
